According to US20030153618A1, “Treatment and prevention of herpes simplex infections” (priority 1999, published 2003):
Values joined by “and” are separate entries in the source; they are usually repeats but may differ in a detail not shown here. Identical values can stand only once.

How the values were obtained:
[1] = tested on: HSV, Type II; assay: Direct plaque-forming unit (PFU) count in BSC cells in defined media with set lysine (or derivative):arginine ratio; assay type: cell-based; conditions: for P.F.U. Count: average of three tests; for Plaque Forming Unit Count, Average: average of experiments 1-6
Protocol: Absorbed virons were absorbed in susceptible cells in chemically defined media and the number of plaques made were counted. (See Davis, B. D., et al., Microbiology, 2nd Ed., Harper & Row, 1973, Part V, and sources cited therein for procedural details and discussion of the plaque method.)
The cell line chosen was green monkey kidney cells (BSC) that have been passed greater than 41 times. […] The virons were added to a confluent lawn of BSC cells and allowed to absorb at 25° C. for one hour. The unabsorbed virons and the media were removed by washing three times in PBS. […] The control media contained a lysine/arginine ratio of 1:1. The plaques were counted when easily readable. Flasks are done in triplicate.

[2] = tested on: Herpes simplex II virus; assay: Back titration plaque assay: PFU counts at stated amounts of compound under test and arginine; assay type: cell-based, Herpes simplex II virus (BSC cells)
Protocol: The following experiments were conducted by back titration: Herpes simplex II virus from laboratory stocks was used. BSC cells were grown to confluence in Eagles medium with 15% fetal calf serum, 150 units per milliliter of penicillin and 100 micrograms per milliliter of streptomycin. The cultures were inoculated with 500 PFU of HS II. The virons were allowed to absorb for one hour at 25° C. The tissue cultures were then washed three times with sterile PBS to remove excess media and non-absorbed virons. The cells were then incubated at 37° C. until four-plus cytopathic effects were observed. The cells were then disrupted by slow freeze-thaw two times. The suspension was then clarified by slow speed centrifugation at 4° C. The supemanant suspension was then added to confluent BSC cultures. After one hour absorption, the cells were washed with PBS twice. The cells were overlaid in defined reagent (in triplicate) Eagles media in noble agar. The cells were then incubated at 37° C. until the plaques were easily counted, usually 40 t 72 hours. the cells were then washed two times with PBS and then fixed with 10% H2CO and a 2% sodium acetate. The cells were then stained in 0.1% crystal violet in ethanol. In the tables which follow the concentration of the compound to be tested, in micrograms per milliliter, is listed across the top of the table and the concentration of arginine in micrograms per milliliter is listed down the left side of the table, the count of plaque-forming units being shown in the matrix.

[3] = Compound Ratio to Arginine 10:1
[4] = Compound Ratio to Arginine 100:1
[5] = compound 10 μg/ml, arginine 0 μg/ml
[6] = compound 10 μg/ml, arginine 2.5 μg/ml
[7] = compound 10 μg/ml, arginine 5.0 μg/ml
[8] = compound 10 μg/ml, arginine 7.5 μg/ml
[9] = compound 10 μg/ml, arginine 10 μg/ml
[10] = compound 10 μg/ml, arginine 15 μg/ml
[11] = compound 10 μg/ml, arginine 20 μg/ml
[12] = compound 10 μg/ml, arginine 25 μg/ml
[13] = compound 25 μg/ml, arginine 0 μg/ml
[14] = compound 25 μg/ml, arginine 2.5 μg/ml
[15] = compound 25 μg/ml, arginine 5.0 μg/ml
[16] = compound 25 μg/ml, arginine 7.5 μg/ml
[17] = compound 25 μg/ml, arginine 10 μg/ml
[18] = compound 25 μg/ml, arginine 15 μg/ml
[19] = compound 25 μg/ml, arginine 20 μg/ml
[20] = compound 25 μg/ml, arginine 25 μg/ml
[21] = compound 50 μg/ml, arginine 0 μg/ml
[22] = compound 50 μg/ml, arginine 2.5 μg/ml
[23] = compound 50 μg/ml, arginine 5.0 μg/ml
[24] = compound 50 μg/ml, arginine 7.5 μg/ml
[25] = compound 50 μg/ml, arginine 10 μg/ml
[26] = compound 50 μg/ml, arginine 15 μg/ml
[27] = compound 50 μg/ml, arginine 20 μg/ml
[28] = compound 50 μg/ml, arginine 25 μg/ml
[29] = compound 100 μg/ml, arginine 0 μg/ml
[30] = compound 100 μg/ml, arginine 2.5 μg/ml
[31] = compound 100 μg/ml, arginine 5.0 μg/ml
[32] = compound 100 μg/ml, arginine 7.5 μg/ml
[33] = compound 100 μg/ml, arginine 10 μg/ml
[34] = compound 100 μg/ml, arginine 15 μg/ml
[35] = compound 100 μg/ml, arginine 20 μg/ml
[36] = compound 100 μg/ml, arginine 25 μg/ml
[37] = compound 200 μg/ml, arginine 0 μg/ml
[38] = compound 200 μg/ml, arginine 2.5 μg/ml
[39] = compound 200 μg/ml, arginine 5.0 μg/ml
[40] = compound 200 μg/ml, arginine 7.5 μg/ml
[41] = compound 200 μg/ml, arginine 10 μg/ml
[42] = compound 200 μg/ml, arginine 15 μg/ml
[43] = compound 200 μg/ml, arginine 20 μg/ml
[44] = compound 200 μg/ml, arginine 25 μg/ml
[45] = compound 300 μg/ml, arginine 0 μg/ml
[46] = compound 300 μg/ml, arginine 2.5 μg/ml
[47] = compound 300 μg/ml, arginine 5.0 μg/ml
[48] = compound 300 μg/ml, arginine 7.5 μg/ml
[49] = compound 300 μg/ml, arginine 10 μg/ml
[50] = compound 300 μg/ml, arginine 15 μg/ml
[51] = compound 300 μg/ml, arginine 20 μg/ml
[52] = compound 300 μg/ml, arginine 25 μg/ml
[53] = compound 400 μg/ml, arginine 0 μg/ml
[54] = compound 400 μg/ml, arginine 2.5 μg/ml
[55] = compound 400 μg/ml, arginine 5.0 μg/ml
[56] = compound 400 μg/ml, arginine 7.5 μg/ml
[57] = compound 400 μg/ml, arginine 10 μg/ml
[58] = compound 400 μg/ml, arginine 15 μg/ml
[59] = compound 400 μg/ml, arginine 20 μg/ml
[60] = compound 400 μg/ml, arginine 25 μg/ml
[61] = compound 500 μg/ml, arginine 0 μg/ml
[62] = compound 500 μg/ml, arginine 2.5 μg/ml
[63] = compound 500 μg/ml, arginine 5.0 μg/ml
[64] = compound 500 μg/ml, arginine 7.5 μg/ml
[65] = compound 500 μg/ml, arginine 10 μg/ml
[66] = compound 500 μg/ml, arginine 15 μg/ml
[67] = compound 500 μg/ml, arginine 20 μg/ml
[68] = compound 500 μg/ml, arginine 25 μg/ml

## NCCCCCC(N)C(=O)O (stereo not drawn) [drawing 16]
[1]; [3]
  P.F.U. Count: <5
[1]; [4]
  P.F.U. Count: <5

## CC(N)CCCCC(N)C(=O)O (stereo not drawn) [drawing 18]
[2]; [5]
  P.F.U. Count: 0
[2]; [6]
  P.F.U. Count: 0
[2]; [7]
  P.F.U. Count: 0
[2]; [8]
  P.F.U. Count: 0
[2]; [9]
  P.F.U. Count: 610
[2]; [10]
  P.F.U. Count: 46
[2]; [11]
  P.F.U. Count: 2.1 × 10^5
[2]; [12]
  P.F.U. Count: 2.8 × 10^5
[2]; [13]
  P.F.U. Count: 0
[2]; [14]
  P.F.U. Count: 0
[2]; [15]
  P.F.U. Count: 0
[2]; [16]
  P.F.U. Count: 0
[2]; [17]
  P.F.U. Count: 3.7 × 10^3
[2]; [18]
  P.F.U. Count: 4.2 × 10^3
[2]; [19]
  P.F.U. Count: 2.0 × 10^5
[2]; [20]
  P.F.U. Count: 2.1 × 10^5
[2]; [21]
  P.F.U. Count: 0
[2]; [22]
  P.F.U. Count: 0
[2]; [23]
  P.F.U. Count: 0
[2]; [24]
  P.F.U. Count: 0
[2]; [25]
  P.F.U. Count: 79
[2]; [26]
  P.F.U. Count: 276
[2]; [27]
  P.F.U. Count: 1.6 × 10^4
[2]; [28]
  P.F.U. Count: 1.1 × 10^4
[2]; [29]
  P.F.U. Count: 0
[2]; [30]
  P.F.U. Count: 0
[2]; [31]
  P.F.U. Count: 0
[2]; [32]
  P.F.U. Count: 0
[2]; [33]
  P.F.U. Count: 0
[2]; [34]
  P.F.U. Count: 0
[2]; [35]
  P.F.U. Count: 1.0 × 10^3
[2]; [36]
  P.F.U. Count: 1.6 × 10^3
[2]; [37]
  P.F.U. Count: 0
[2]; [38]
  P.F.U. Count: 0
[2]; [39]
  P.F.U. Count: 0
[2]; [40]
  P.F.U. Count: 0
[2]; [41]
  P.F.U. Count: 0
[2]; [42]
  P.F.U. Count: 0
[2]; [43]
  P.F.U. Count: 760
[2]; [44]
  P.F.U. Count: 1.7 × 10^3
[2]; [45]
  P.F.U. Count: 0
[2]; [46]
  P.F.U. Count: 0
[2]; [47]
  P.F.U. Count: 0
[2]; [48]
  P.F.U. Count: 0
[2]; [49]
  P.F.U. Count: 0
[2]; [50]
  P.F.U. Count: 0
[2]; [51]
  P.F.U. Count: 163
[2]; [52]
  P.F.U. Count: 1.0 × 10^3
[2]; [53]
  P.F.U. Count: 0
[2]; [54]
  P.F.U. Count: 0
[2]; [55]
  P.F.U. Count: 0
[2]; [56]
  P.F.U. Count: 0
[2]; [57]
  P.F.U. Count: 0
[2]; [58]
  P.F.U. Count: 179
[2]; [59]
  P.F.U. Count: 310
[2]; [60]
  P.F.U. Count: 140
[2]; [61]
  P.F.U. Count: 0
[2]; [62]
  P.F.U. Count: 0
[2]; [63]
  P.F.U. Count: 0
[2]; [64]
  P.F.U. Count: 0
[2]; [65]
  P.F.U. Count: 0
[2]; [66]
  P.F.U. Count: 0
[2]; [67]
  P.F.U. Count: 0
[2]; [68]
  P.F.U. Count: 0

## NCCCC[C@H](N)C(=O)O [Lysine, lysine, reference compound]
[1]; Lysine:Arginine Ratio 1:1 (control media)
  Plaque Forming Unit Count, Average: 738
[1]; Lysine:Arginine Ratio 1:1 (control media), single experiment
  Plaque Forming Unit Count: 814 and 594 and 631 and 621 and 936 and 781
[1]; Lysine:Arginine Ratio 500:1
  Plaque Forming Unit Count, Average: 12

## CC(N)CCCCC(N)C(=O)O (stereo not drawn) [drawing 15]
[1]; [3]
  P.F.U. Count: <5
[1]; [4]
  P.F.U. Count: <5

## NCCCCCC(N)C(=O)O (stereo not drawn) [drawing 17]
[2]; [5]
  P.F.U. Count: 0
[2]; [6]
  P.F.U. Count: 0
[2]; [7]
  P.F.U. Count: 0
[2]; [8]
  P.F.U. Count: 0
[2]; [9]
  P.F.U. Count: 290
[2]; [10]
  P.F.U. Count: 799
[2]; [11]
  P.F.U. Count: 2.8 × 10^5
[2]; [12]
  P.F.U. Count: 2.8 × 10^5
[2]; [13]
  P.F.U. Count: 0
[2]; [14]
  P.F.U. Count: 0
[2]; [15]
  P.F.U. Count: 0
[2]; [16]
  P.F.U. Count: 0
[2]; [17]
  P.F.U. Count: 3.7 × 10^3
[2]; [18]
  P.F.U. Count: 4.2 × 10^3
[2]; [19]
  P.F.U. Count: 2.6 × 10^5
[2]; [20]
  P.F.U. Count: 4 × 10^5
[2]; [21]
  P.F.U. Count: 0
[2]; [22]
  P.F.U. Count: 0
[2]; [23]
  P.F.U. Count: 0
[2]; [24]
  P.F.U. Count: 0
[2]; [25]
  P.F.U. Count: 79
[2]; [26]
  P.F.U. Count: 276
[2]; [27]
  P.F.U. Count: 6.6 × 10^4
[2]; [28]
  P.F.U. Count: 3.6 × 10^4
[2]; [29]
  P.F.U. Count: 0
[2]; [30]
  P.F.U. Count: 0
[2]; [31]
  P.F.U. Count: 0
[2]; [32]
  P.F.U. Count: 0
[2]; [33]
  P.F.U. Count: 0
[2]; [34]
  P.F.U. Count: 0
[2]; [35]
  P.F.U. Count: 3.2 × 10^3
[2]; [36]
  P.F.U. Count: 6.6 × 10^3
[2]; [37]
  P.F.U. Count: 0
[2]; [38]
  P.F.U. Count: 0
[2]; [39]
  P.F.U. Count: 0
[2]; [40]
  P.F.U. Count: 0
[2]; [41]
  P.F.U. Count: 0
[2]; [42]
  P.F.U. Count: 0
[2]; [43]
  P.F.U. Count: 68
[2]; [44]
  P.F.U. Count: 654
[2]; [45]
  P.F.U. Count: 0
[2]; [46]
  P.F.U. Count: 0
[2]; [47]
  P.F.U. Count: 0
[2]; [48]
  P.F.U. Count: 0
[2]; [49]
  P.F.U. Count: 0
[2]; [50]
  P.F.U. Count: 0
[2]; [51]
  P.F.U. Count: 0
[2]; [52]
  P.F.U. Count: 0
[2]; [53]
  P.F.U. Count: 0
[2]; [54]
  P.F.U. Count: 0
[2]; [55]
  P.F.U. Count: 0
[2]; [56]
  P.F.U. Count: 0
[2]; [57]
  P.F.U. Count: 0
[2]; [58]
  P.F.U. Count: 0
[2]; [59]
  P.F.U. Count: 0
[2]; [60]
  P.F.U. Count: 0
[2]; [61]
  P.F.U. Count: 0
[2]; [62]
  P.F.U. Count: 0
[2]; [63]
  P.F.U. Count: 0
[2]; [64]
  P.F.U. Count: 0
[2]; [65]
  P.F.U. Count: 0
[2]; [66]
  P.F.U. Count: 0
[2]; [67]
  P.F.U. Count: 0
[2]; [68]
  P.F.U. Count: 0
